Literature values in patent publication US11234933B1, “Surface-modified emulsomes for intranasal delivery of drugs” (King Abdulaziz University, priority 2020, dated 2022).

Details: oral route, first pass

Question: Which VIN hepatic metabolism does the source give for `CCOC(=O)C1=C[C@]2(CC)CCCN3CCc4c(n1c1ccccc41)[C@@H]32` [VIN, Vinpocetine] here?
Answer: ~75%
